Key:
rape = assay: Test B pre/postemergence rape; format: in vivo, Brassica napus
How it was run: (§1)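 Response is a visual 0-to-10 score relative to untreated plants, where 0 means no effect and 10 means complete control, taken twelve to sixteen days after application. Treatments went onto soil at planting and onto foliage of 1- to 4-leaf plants, using a surfactant-containing non-phytotoxic solvent.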

wild oat = assay: Test B pre/postemergence wild oat; format: in vivo, Avena fatua
How it was run: as §1

blackgrass = assay: Test B pre/postemergence blackgrass; format: in vivo, Alopecurus myosuroides
How it was run: as §1

giant foxtail = assay: Test B pre/postemergence giant foxtail; format: in vivo, Setaria faberii
How it was run: as §1

purple nutsedge = assay: Test B pre/postemergence purple nutsedge; format: in vivo, Cyperus rotundus
How it was run: as §1

wheat = assay: Test B pre/postemergence wheat; format: in vivo, Triticum aestivum
How it was run: as §1

crabgrass = assay: Test B pre/postemergence crabgrass; format: in vivo, Digitaria sanguinalis
How it was run: as §1

pigweed = assay: Test B pre/postemergence pigweed; format: in vivo, Amaranthus retroflexus
How it was run: as §1

sugar beet = assay: Test B pre/postemergence sugar beet; format: in vivo, Beta vulgaris
How it was run: as §1

bedstraw = assay: Test B pre/postemergence bedstraw; format: in vivo, Galium aparine
How it was run: as §1

corn = assay: Test B pre/postemergence corn; format: in vivo, Zea mays
How it was run: as §1

surinam grass = assay: Test B pre/postemergence surinam grass; format: in vivo, Brachiaria decumbens
How it was run: as §1

cocklebur = assay: Test B pre/postemergence cocklebur; format: in vivo, Xanthium strumarium
How it was run: as §1

morningglory = assay: Test B pre/postemergence morningglory; format: in vivo, Ipomoea hederacea
How it was run: as §1

soybean = assay: Test B pre/postemergence soybean; format: in vivo, Glycine max
How it was run: as §1

velvetleaf = assay: Test B pre/postemergence velvetleaf; format: in vivo, Abutilon theophrasti
How it was run: as §1

[1] = Postemergence, Rate 62 g/ha, scale 0 to 10, 0 is no effect, 10 is complete control
[2] = Postemergence, Rate 125 g/ha, scale of 0 to 10 where 0 is no effect and 10 is complete control
[3] = Preemergence, Rate 62 g/ha, scale of 0 to 10 where 0 is no effect and 10 is complete control
[4] = Preemergence, Rate 125 g/ha, scale of 0 to 10 where 0 is no effect and 10 is complete control
[5] = Preemergence, Rate 250 g/ha, scale 0 to 10 (0 no effect, 10 complete control)
[6] = Preemergence, Rate 500 g/ha, scale of 0 to 10 where 0 is no effect and 10 is complete control
[7] = Rate 500 g/ha, Postemergence, scale 0 to 10, 0 is no effect, 10 is complete control
[8] = Postemergence, Rate 250 g/ha, scale of 0 to 10, 0 is no effect, 10 is complete control

CC(C)N(C(=O)n1oc(=O)n(C(CCl)CCl)c1=O)c1ccc(F)cc1 [Compound 672]
4: Plant response rating, Wild oats (wild oat; [4]) | Plant response rating, Sugarbeets (sugar beet; [4]) | Bedstraw plant response rating (bedstraw; [8]) | Plant response rating, B. signalgrass (surinam grass; [4]) | B. signalgrass plant response rating (surinam grass; [7]) | Plant response rating, Morningglory (morningglory; [1]) | Plant response rating, Velvetleaf (velvetleaf; [6])
7: Plant response rating, Rape (rape; [5]) | Plant response rating, Wild oats (wild oat; [6]) | Crabgrass plant response rating (crabgrass; [8]) | Plant response rating, Redroot pigweed (pigweed; [1]) | Plant response rating, Redroot pigweed (pigweed; [5]) | Plant response rating, Sugarbeets (sugar beet; [5]) | Cocklebur plant response rating (cocklebur; [7]) | Velvetleaf plant response rating (velvetleaf; [7])
9: Giant foxtail plant response rating (giant foxtail; [3]) | Giant foxtail plant response rating (giant foxtail; [7]) | Crabgrass plant response rating (crabgrass; [7])
2: Plant response rating, Rape (rape; [4]) | Blackgrass plant response rating (blackgrass; [2]) | B. signalgrass plant response rating (surinam grass; [3]) | Cocklebur plant response rating (cocklebur; [8]) | Plant response rating, Morningglory (morningglory; [6]) | Plant response rating, Soybean (soybean; [1]) | Soybean plant response rating (soybean; [2])
8: Plant response rating, Rape (rape; [6]) | Plant response rating, Blackgrass (blackgrass; [5]) | Plant response rating, Blackgrass (blackgrass; [6]) | Giant foxtail plant response rating (giant foxtail; [8]) | Crabgrass plant response rating (crabgrass; [3]) | Plant response rating, Redroot pigweed (pigweed; [6]) | Redroot pigweed plant response rating (pigweed; [7]) | Plant response rating, Sugarbeets (sugar beet; [6]) | Plant response rating, B. signalgrass (surinam grass; [6]) | Morningglory plant response rating (morningglory; [2]) | Morningglory plant response rating (morningglory; [8])
1: Blackgrass plant response rating (blackgrass; [3]) | Cocklebur plant response rating (cocklebur; [2])
6: Blackgrass plant response rating (blackgrass; [8]) | Blackgrass plant response rating (blackgrass; [7]) | Crabgrass plant response rating (crabgrass; [2]) | Bedstraw plant response rating (bedstraw; [7]) | Plant response rating, B. signalgrass (surinam grass; [5]) | Plant response rating, Velvetleaf (velvetleaf; [1]) | Velvetleaf plant response rating (velvetleaf; [2])
5: Plant response rating, Wild oats (wild oat; [5]) | Giant foxtail plant response rating (giant foxtail; [2]) | Nutsedge plant response rating (purple nutsedge; [7]) | Plant response rating, Crabgrass (crabgrass; [1]) | Soybean plant response rating (soybean; [7])
10: Plant response rating, Giant foxtail (giant foxtail; [4]) | Plant response rating, Giant foxtail (giant foxtail; [5]) | Plant response rating, Giant foxtail (giant foxtail; [6]) | Plant response rating, Crabgrass (crabgrass; [4]) | Plant response rating, Crabgrass (crabgrass; [5]) | Plant response rating, Crabgrass (crabgrass; [6])
0: Plant response rating, Rape (rape; [1]) | Rape plant response rating (rape; [3]) | Plant response rating, Wild oats (wild oat; [1]) | Wild oats plant response rating (wild oat; [2]) | Wild oats plant response rating (wild oat; [3]) | Wild oats plant response rating (wild oat; [7]) | Plant response rating, Blackgrass (blackgrass; [1]) | Plant response rating, Nutsedge (purple nutsedge; [1]) | Nutsedge plant response rating (purple nutsedge; [2]) | Nutsedge plant response rating (purple nutsedge; [3]) | Plant response rating, Nutsedge (purple nutsedge; [4]) | Plant response rating, Nutsedge (purple nutsedge; [5]) | Plant response rating, Nutsedge (purple nutsedge; [6]) | Plant response rating, Wheat (wheat; [1]) | Wheat plant response rating (wheat; [2]) | Wheat plant response rating (wheat; [3]) | Plant response rating, Wheat (wheat; [4]) | Plant response rating, Wheat (wheat; [5]) | Plant response rating, Wheat (wheat; [6]) | Wheat plant response rating (wheat; [7]) | Redroot pigweed plant response rating (pigweed; [3]) | Plant response rating, Sugarbeets (sugar beet; [1]) | Sugarbeets plant response rating (sugar beet; [2]) | Bedstraw plant response rating (bedstraw; [3]) | Plant response rating, Bedstraw (bedstraw; [4]) | Plant response rating, Bedstraw (bedstraw; [5]) | Plant response rating, Bedstraw (bedstraw; [6]) | Plant response rating, Corn (corn; [1]) | Corn plant response rating (corn; [2]) | Corn plant response rating (corn; [8]) | Corn plant response rating (corn; [3]) | Plant response rating, Corn (corn; [4]) | Plant response rating, Corn (corn; [5]) | Plant response rating, Corn (corn; [6]) | Corn plant response rating (corn; [7]) | Plant response rating, B. signalgrass (surinam grass; [1]) | Plant response rating, Cocklebur (cocklebur; [1]) | Cocklebur plant response rating (cocklebur; [3]) | Plant response rating, Cocklebur (cocklebur; [4]) | Plant response rating, Cocklebur (cocklebur; [5]) | Morningglory plant response rating (morningglory; [3]) | Plant response rating, Morningglory (morningglory; [4]) | Plant response rating, Morningglory (morningglory; [5]) | Soybean plant response rating (soybean; [3]) | Plant response rating, Soybean (soybean; [4]) | Plant response rating, Soybean (soybean; [5]) | Plant response rating, Soybean (soybean; [6]) | Velvetleaf plant response rating (velvetleaf; [3])
3: Rape plant response rating (rape; [2]) | Rape plant response rating (rape; [7]) | Plant response rating, Blackgrass (blackgrass; [4]) | Plant response rating, Giant foxtail (giant foxtail; [1]) | Plant response rating, Redroot pigweed (pigweed; [4]) | Sugarbeets plant response rating (sugar beet; [3]) | Sugarbeets plant response rating (sugar beet; [7]) | Plant response rating, B. signalgrass (surinam grass; [2]) | B. signalgrass plant response rating (surinam grass; [8]) | Plant response rating, Velvetleaf (velvetleaf; [4]) | Plant response rating, Velvetleaf (velvetleaf; [5])
